Here are results for 12 compounds from ChEMBL document CHEMBL3763138, “Synthesis and bioactivity of novel triazole incorporated benzothiazinone derivatives as antitubercular and antioxidant agent” (Bioorg Med Chem Lett, 2016).

What all share (settings): ATCC 35743, 10 min
Assay [1] relates to Mycobacterium tuberculosis variant bovis BCG. The experiment in a line: Antitubercular activity against Mycobacterium bovis BCG ATCC 35743 after 10 mins by NR assay. The format is functional, organism-based.
Assay [2] has the same test system. Kind of assay: Antitubercular activity against Mycobacterium bovis BCG ATCC 35743 at 3 ug/ml after 10 mins by NR assay. The assay is classed as functional.
Assay [3] has the same test system. The experiment in a line: Antitubercular activity against Mycobacterium bovis BCG ATCC 35743 at 10 ug/ml after 10 mins by NR assay. The format is functional.
For assay [4] the test system is unchanged. Kind of assay: Antitubercular activity against Mycobacterium bovis BCG ATCC 35743 at 30 ug/ml after 10 mins by NR assay. The assay is classed as functional.

In brackets after ≈: the same amount, converted by molar mass.

Regarding `NNC(=O)c1ccncc1` [ISONIAZID], in assay [1], the IC50 was found to be 0.0023 µg/mL (≈ 0.0168 µM) and the MIC came out at 0.045 µg/mL (≈ 0.328 µM).

With `O=C1CSc2ccccc2N1Cc1cn(Cc2cccc(Cl)c2)nn1`, 3 µg/mL produced 3.3% inhibition in assay [2]. The compound further had an inhibition at 10 µg/mL in assay [3] of 16.4%. The compound further yielded an inhibition at 30 µg/mL in assay [4] of 95.5%. Further, in assay [1], the IC50 turned out to be 18.6 µg/mL (≈ 50.1 µM) and the MIC was determined as 28.4 µg/mL (≈ 76.7 µM).

In assay [1], `CO[C@H]1/C=C/O[C@@]2(C)Oc3c(C)c(O)c4c(O)c(c(/C=N/N5CCN(C)CC5)c(O)c4c3C2=O)NC(=O)/C(C)=C\C=C\[C@H](C)[C@H](O)[C@@H](C)[C@@H](O)[C@@H](C)[C@H](OC(C)=O)[C@@H]1C` [RIFAMPIN] had an IC50 of 0.0016 µg/mL (≈ 0.00194 µM) and an MIC of 0.041 µg/mL (≈ 0.0498 µM).

For the compound `O=C1CSc2ccccc2N1Cc1cn(Cc2ccc(Br)cc2)nn1`, the inhibition at 3 µg/mL in assay [2] was found to be 58.8%. In assay [3], the inhibition at 10 µg/mL was 35.3%. In assay [4], this compound showed an inhibition at 30 µg/mL of 43.9%. In assay [1], the IC50 was > 30 µg/mL and the MIC is > 30 µg/mL.

In turn, `O=C1CSc2ccccc2N1Cc1cn(Cc2ccccc2)nn1` gave an inhibition at 3 µg/mL in assay [2] of 1.1%. The inhibition at 10 µg/mL in assay [3] was 26.8%. The inhibition at 30 µg/mL in assay [4] turned out to be 74.3%. For the same compound, in assay [1], half-maximal inhibition (IC50) was put at 19.8 µg/mL (≈ 58.7 µM) and the MIC was > 30 µg/mL.

Turning to `O=C1CSc2ccccc2N1Cc1cn(Cc2ccc(Cl)cc2)nn1`, in assay [2], 3 µg/mL produced 66.1% inhibition. In addition, in assay [3], 10 µg/mL produced 55.2% inhibition. Moreover, testing at 30 µg/mL in assay [4] gave an inhibition of 58.1%. Also, in assay [1], half-maximal inhibition (IC50) was put at 8.55 µg/mL (≈ 23.1 µM) and the MIC was > 30 µg/mL.

Consider `O=C1CSc2ccccc2N1Cc1cn(Cc2ccc([N+](=O)[O-])cc2)nn1`, for which the inhibition at 3 µg/mL in assay [2] was 28.3%. The compound also yielded an inhibition at 10 µg/mL in assay [3] of 59.2%. This compound also displayed an inhibition at 30 µg/mL in assay [4] of 91.1%. Also, in assay [1], the IC50 is 7.89 µg/mL (≈ 20.7 µM) and the MIC was determined as 29.4 µg/mL (≈ 77 µM).

As to `O=C1CSc2ccccc2N1Cc1cn(-c2cccc([N+](=O)[O-])c2)nn1`, testing at 3 µg/mL in assay [2] gave an inhibition of 39.3%. Further, 10 µg/mL produced 31.3% inhibition in assay [3]. Also, in assay [4], the inhibition at 30 µg/mL was 26.6%. Further, in assay [1], the IC50 is > 30 µg/mL and the MIC is > 30 µg/mL.

`O=C1CSc2ccccc2N1Cc1cn(-c2ccc([N+](=O)[O-])cc2)nn1` came in with an inhibition at 3 µg/mL in assay [2] of 15.9%. In assay [3], this compound yielded an inhibition at 10 µg/mL of 30.7%. For the same compound, the inhibition at 30 µg/mL in assay [4] was 33.1%. In assay [1], the IC50 was > 30 µg/mL and the MIC is > 30 µg/mL.

Regarding `O=C1CSc2ccccc2N1Cc1cn(Cc2ccccc2Cl)nn1`, in assay [2], the inhibition at 3 µg/mL was 32%. Testing at 10 µg/mL in assay [3] gave an inhibition of 80.2%. The same compound displayed an inhibition at 30 µg/mL in assay [4] of 58%. For the same compound, in assay [1], the IC50 is > 30 µg/mL and the MIC was > 30 µg/mL.

In turn, `O=C1CSc2ccccc2N1Cc1cn(Cc2cccc([N+](=O)[O-])c2)nn1` registered an inhibition at 3 µg/mL in assay [2] of 36.1%. In assay [3], this compound showed an inhibition at 10 µg/mL of 62.2%. In assay [4], this compound came in with an inhibition at 30 µg/mL of 88.5%. In addition, in assay [1], half-maximal inhibition (IC50) required 6.89 µg/mL (≈ 18.1 µM) and the MIC was > 30 µg/mL.

Compound `O=C1CSc2ccccc2N1Cc1cn(Cc2ccc(F)cc2)nn1` yielded an inhibition at 3 µg/mL in assay [2] of 40.6%. The same compound had an inhibition at 10 µg/mL in assay [3] of 52.9%. In assay [4], the inhibition at 30 µg/mL came out at 95.3%. In assay [1], this compound had an IC50 of 8.25 µg/mL (≈ 23.3 µM) and an MIC of 27.5 µg/mL (≈ 77.6 µM).
